The values that follow are results of earlier work, collected in PubChem BioAssay AID1259409 (Chemical Carcinogenesis Research Information System (CCRIS), 2018).

SMILES strings stand for the structures.

For the data set, the system named is rodent chemically induced tumor inhibition, incidence and multiplicity. Briefly: CCRIS tumor inhibitor studies. The conditions noted are these: Carcinogen: 4-(METHYLNITROSAMINO)-1-(3-PYRIDYL)-1-BUTANONE; 64091-91-4; Dose [Inhibitor]: 0; 5 UMOL IN 0.1 ML CORN OIL ONCE 2 HR PRIOR TO CARCINOGEN DOSE (STUDY DURATION: 16 WK); Route [Inhibitor]: GAVAGE; Species: MOUSE; Strain/Sex: STRAIN-A/FEMALE; Target Tissue: Type of Lesion: LUNG: ADENOMA; Dose [Carcinogen]: 10 UMOL IN 0.1 ML SALINE ONCE; Promoter: NONE USED.

In the case of `C#CCCc1ccccc1`, the “tumour outcome (control, treated, inhibition, significance)” value is given as 100%, 60%, 40%, p<0.01.
